Reference: ChEMBL document CHEMBL1124630, “Fluoronaphthyridines and quinolones as antibacterial agents. 1. Synthesis and structure-activity relationships of new 1-substituted derivatives” (J Med Chem, 1989)
Converted amounts (≈) assume the structure as drawn.

Experiments:
[1] = test system: Staphylococcus aureus; assay: In vivo efficacy in systemic infection due to Staphylococcus aureus Smith (A 9537) in mice; assay type: functional; settings: read-out: PD50
[2] = test system: Escherichia coli; assay: In vitro antibacterial activity against Escherichia coli (A 15119); assay type: functional; settings: Escherichia coli; read-out: MIC
[3] = test system: Pseudomonas aeruginosa; assay: In vivo efficacy in systemic infection due to Pseudomonas aeruginosa (A 9843) in mice; assay type: functional; settings: read-out: PD50
[4] = test system: Klebsiella pneumoniae; assay: In vitro antibacterial activity against Klebsiella pneumoniae (A 9664); assay type: functional; settings: Klebsiella pneumoniae; read-out: MIC
[5] = test system: Staphylococcus aureus; assay: In vitro antibacterial activity against Staphylococcus aureus Smith (A9537); assay type: functional; settings: Staphylococcus aureus; read-out: MIC
[6] = test system: Morganella morganii; assay: In vitro antibacterial activity against Morganella morganii (A 15153); assay type: functional; settings: Morganella morganii; read-out: MIC
[7] = test system: Enterobacter cloacae; assay: In vitro antibacterial activity against Enterobacter cloacae (A 9656); assay type: functional; settings: Enterobacter cloacae; read-out: MIC
[8] = test system: Pseudomonas aeruginosa; assay: In vitro antibacterial activity against Pseudomonas aeruginosa (A 9843); assay type: functional; settings: Pseudomonas aeruginosa; read-out: MIC
[9] = Lethal dose of compound in OF1-strain female swiss mice after oral administration; assay type: toxicity, organism-based; settings: mouse, in vivo
[10] = test system: Escherichia coli; assay: In vivo efficacy in systemic infection due to Escherichia coli (A 15119) in mice; assay type: functional; settings: read-out: PD50
[11] = test system: Klebsiella pneumoniae; assay: In vivo efficacy in systemic infection due to Klebsiella pneumoniae (A 9664) in mice; assay type: functional; settings: read-out: PD50

Structure (SMILES)	ED50 [1]	MIC [2]	ED50 [3]	MIC [4]	MIC [5]	MIC [6]	MIC [7]	MIC [8]	LD50 [9]	ED50 [10]	ED50 [11]
C=C(C)n1cc(C(=O)O)c(=O)c2cc(F)c(N3CCNCC3)nc21	15 mg/kg	0.13 mg/L (≈ 0.391 µM)	20 mg/kg	0.13 mg/L (≈ 0.391 µM)	0.5 mg/L (≈ 1.5 µM)	0.5 mg/L (≈ 1.5 µM)	0.25 mg/L (≈ 0.752 µM)	2 mg/L (≈ 6.02 µM)	–	–	–
CC1(n2cc(C(=O)O)c(=O)c3cc(F)c(N4CCNCC4)cc32)CCC1	–	0.25 mg/L (≈ 0.696 µM)	–	2 mg/L (≈ 5.56 µM)	0.5 mg/L (≈ 1.39 µM)	0.5 mg/L (≈ 1.39 µM)	1 mg/L (≈ 2.78 µM)	8 mg/L (≈ 22.3 µM)	–	–	–
O=C(O)c1cn(C2(c3ccccc3)CC2)c2cc(N3CCNCC3)c(F)cc2c1=O	–	0.13 mg/L (≈ 0.319 µM)	–	0.25 mg/L (≈ 0.614 µM)	0.13 mg/L (≈ 0.319 µM)	0.25 mg/L (≈ 0.614 µM)	0.25 mg/L (≈ 0.614 µM)	4 mg/L (≈ 9.82 µM)	–	–	–
CC1(C)CC1n1cc(C(=O)O)c(=O)c2cc(F)c(N3CCNCC3)cc21 (stereo not given)	–	1 mg/L (≈ 2.78 µM)	–	2 mg/L (≈ 5.56 µM)	1 mg/L (≈ 2.78 µM)	8 mg/L (≈ 22.3 µM)	4 mg/L (≈ 11.1 µM)	32 mg/L (≈ 89 µM)	–	–	–
CCn1cc(C(=O)O)c(=O)c2cc(F)c(N3CCNCC3)cc21 [NORFLOXACIN]	10 mg/kg	0.13 mg/L (≈ 0.407 µM)	16 mg/kg	0.03 mg/L (≈ 0.0939 µM)	0.25 mg/L (≈ 0.783 µM)	0.015 mg/L (≈ 0.047 µM)	0.06 mg/L (≈ 0.188 µM)	0.5 mg/L (≈ 1.57 µM)	> 2500 mg/kg	3 mg/kg	8 mg/kg
C=C(C)n1cc(C(=O)O)c(=O)c2cc(F)c(N3CCNCC3)cc21	–	0.13 mg/L (≈ 0.392 µM)	–	0.25 mg/L (≈ 0.754 µM)	0.5 mg/L (≈ 1.51 µM)	0.13 mg/L (≈ 0.392 µM)	0.06 mg/L (≈ 0.181 µM)	0.5 mg/L (≈ 1.51 µM)	–	–	–
CCn1cc(C(=O)O)c(=O)c2cc(F)c(N3CCNCC3)nc21 [ENOXACIN]	–	0.13 mg/L (≈ 0.406 µM)	–	0.5 mg/L (≈ 1.56 µM)	0.25 mg/L (≈ 0.78 µM)	0.13 mg/L (≈ 0.406 µM)	0.5 mg/L (≈ 1.56 µM)	0.5 mg/L (≈ 1.56 µM)	–	–	–
CC1(n2cc(C(=O)O)c(=O)c3cc(F)c(N4CCNCC4)cc32)CC1	–	0.06 mg/L (≈ 0.174 µM)	–	0.25 mg/L (≈ 0.724 µM)	0.25 mg/L (≈ 0.724 µM)	0.25 mg/L (≈ 0.724 µM)	0.5 mg/L (≈ 1.45 µM)	0.5 mg/L (≈ 1.45 µM)	–	–	–
O=C(O)c1cn(C2CC2)c2nc(N3CCNCC3)c(F)cc2c1=O	6.7 mg/kg	0.06 mg/L (≈ 0.181 µM)	3.6 mg/kg	0.06 mg/L (≈ 0.181 µM)	0.25 mg/L (≈ 0.752 µM)	0.06 mg/L (≈ 0.181 µM)	0.06 mg/L (≈ 0.181 µM)	0.06 mg/L (≈ 0.181 µM)	–	0.5 mg/kg	2.2 mg/kg
CC(C)n1cc(C(=O)O)c(=O)c2cc(F)c(N3CCNCC3)cc21	–	0.5 mg/L (≈ 1.5 µM)	–	1 mg/L (≈ 3 µM)	1 mg/L (≈ 3 µM)	0.25 mg/L (≈ 0.75 µM)	2 mg/L (≈ 6 µM)	1 mg/L (≈ 3 µM)	–	–	–
CCC(C)(C)n1cc(C(=O)O)c(=O)c2cc(F)c(N3CCNCC3)cc21	–	0.5 mg/L (≈ 1.38 µM)	–	1 mg/L (≈ 2.77 µM)	0.25 mg/L (≈ 0.692 µM)	4 mg/L (≈ 11.1 µM)	1 mg/L (≈ 2.77 µM)	4 mg/L (≈ 11.1 µM)	–	–	–
O=C(O)c1cn(C2CC2)c2c(F)c(N3CCNCC3)c(F)cc2c1=O	–	0.03 mg/L (≈ 0.0859 µM)	–	0.06 mg/L (≈ 0.172 µM)	0.13 mg/L (≈ 0.372 µM)	0.008 mg/L (≈ 0.0229 µM)	0.06 mg/L (≈ 0.172 µM)	0.25 mg/L (≈ 0.716 µM)	–	–	–
CC(C)(C)n1cc(C(=O)O)c(=O)c2cc(F)c(N3CCNCC3)c(F)c21	–	0.06 mg/L (≈ 0.164 µM)	–	0.25 mg/L (≈ 0.684 µM)	0.25 mg/L (≈ 0.684 µM)	0.5 mg/L (≈ 1.37 µM)	0.25 mg/L (≈ 0.684 µM)	4 mg/L (≈ 10.9 µM)	–	–	–
O=C(O)c1cn(C23CC4CC(CC(C4)C2)C3)c2cc(N3CCNCC3)c(F)cc2c1=O	–	2 mg/L (≈ 4.7 µM)	–	8 mg/L (≈ 18.8 µM)	8 mg/L (≈ 18.8 µM)	32 mg/L (≈ 75.2 µM)	4 mg/L (≈ 9.4 µM)	63 mg/L (≈ 148 µM)	–	–	–
